The values below are quoted from earlier work in patent US20030039701A1 (priority 2000, published 2003).

The structures appear in SMILES notation. Read-outs that look alike come from different tables or passages of the source.

The test system of one data set is hypogonadal men. The conditions noted are these: Caucasian group.
The subject of data set [1] is prostate and seminal vesicle weights.
The next data set deals with young female rats. The conditions noted are these: mini-osmotic pumps.
A further data set concerns androgen receptor. The conditions noted are these: seminal vesicle.
In the next data set the test system is patients on dialysis. The conditions noted are these: compared with placebo.
A further data set addresses T1, aromatase (Homo sapiens, UniProt P11511).
T1 sequence (P11511 1-503): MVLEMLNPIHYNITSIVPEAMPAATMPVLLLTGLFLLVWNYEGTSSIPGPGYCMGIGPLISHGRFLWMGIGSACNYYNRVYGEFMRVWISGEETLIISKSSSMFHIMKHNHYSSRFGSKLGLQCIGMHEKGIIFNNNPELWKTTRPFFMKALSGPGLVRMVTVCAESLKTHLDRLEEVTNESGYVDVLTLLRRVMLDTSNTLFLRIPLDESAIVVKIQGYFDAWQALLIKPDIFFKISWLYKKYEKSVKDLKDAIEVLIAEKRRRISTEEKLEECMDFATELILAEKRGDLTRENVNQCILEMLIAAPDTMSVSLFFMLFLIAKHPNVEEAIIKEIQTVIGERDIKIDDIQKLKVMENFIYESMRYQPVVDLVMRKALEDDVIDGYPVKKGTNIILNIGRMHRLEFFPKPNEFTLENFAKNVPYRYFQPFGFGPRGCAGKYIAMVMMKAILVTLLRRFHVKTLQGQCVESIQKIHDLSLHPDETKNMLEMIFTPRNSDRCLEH
The conditions noted are these: relative to chrysin, AG, ANG.

Assay in data set [2]: not given
This is another data set of the same source.

The conditions of data set [3]: 300 mg/wk for six weeks; TE: shoulders; ND: shoulders and chest.
For another data set, the system named is HIV-infected men. The conditions noted are these: pharmacological doses.
The conditions of data set [4]: supplementation.

For the compound `C[C@@H]1CC2=CC(=O)CC[C@@H]2[C@H]2CC[C@]3(C)[C@@H](O)CC[C@H]3[C@@H]21` [MENT, 7α-methyl-19-nor-testosterone], the “sexual interest and activity, spontaneous erection” value in the data set with hypogonadal men is “significant increases”. Further, the “anabolic potency relative to testosterone” value with levator ani muscles is “ten-times as potent as testosterone”. Besides, the “androgenic potency relative to testosterone” value in [1] was “four- to five-times more androgenic than testosterone”.
With `C[C@]12CC[C@H]3[C@@H](CCC4=CC(=O)CC[C@@]43C)[C@@H]1CC[C@@H]2O` [testosterone], the “proportion of protein in the body composition” value in the data set on young female rats is on record as “increased the proportion of protein”. The “change of affinity to the androgen receptor on conversion by 5-α-reductase” value with androgen receptor is “increasing by seven- to eight-fold”.
As to `C[C@]12CC[C@H]3[C@@H](CC=C4C[C@@H](O)CC[C@@]43C)[C@@H]1CC[C@@H]2O` [5-androstenediol], in the data set on young female rats, the “proportion of protein in the body composition” value is reported as “increased the proportion of protein”.
Take `C[C@]12CC[C@H]3[C@@H](CCC4=CC(=O)CC[C@@H]43)[C@@H]1CC[C@@H]2O` [nandrolone, 19-nor-testosterone]: in the data set with young female rats, the energy expenditure result was “increased energy expenditure”. Besides, the lean body mass result in the data set on patients on dialysis was “increased significantly”. For the setting “body builders”, the “decrease in HDL-cholesterol” value is 25-27% and the “decrease in diastolic blood pressure” value is recorded as 25-27%. Further, the “azoospermia (lack of sperm)” value (nandrolone use) was “azoospermia”.
Take `COc1ccc(-c2coc3cc(O)cc(O)c3c2=O)cc1` [Biochanin A, 5,7-dihydroxy-4′-methoxyisoflavone]: the “aromatase inhibition” value on aromatase is given as “inhibited aromatase, but to a lesser degree”.
Consider `C[C@]12CC[C@H](O)CC1=CC[C@@H]1[C@@H]2CC[C@]2(C)C(=O)CC[C@@H]12` [DHEA, dehydro-epiandrosterone], for which the plasma testosterone result in data set [2] (50 mg dose) was “restored plasma testosterone to levels similar to those observed in young women”; in data set [2] (200 mg dose), “slightly below the levels observed in normal men”.
On to `CCCCCCCCCC(=O)O[C@H]1CC[C@H]2[C@@H]3CCC4=CC(=O)CC[C@@H]4[C@H]3CC[C@]12C` [ND, 19-nor-testosterone decanoate], for which the “body circumferences (of fifteen)” value in [3] is on record as “significant increases”. In the data set on HIV-infected men, the “total weight, lean body mass, body cell mass, muscle size and strength” value is recorded as “significant gains”.
For the compound `C[C@]12CC[C@H]3[C@@H](CCC4=C[C@@H](O)CC[C@@]43C)[C@@H]1CC[C@@H]2O` [4-androstenediol], the “urine testosterone concentration relative to 4-androstenedione” value in data set [4] was 10 fold.
Turning to `CCCCCCC(=O)O[C@H]1CC[C@H]2[C@@H]3CCC4=CC(=O)CC[C@]4(C)[C@H]3CC[C@]12C` [TE, testosterone enanthate], the “sexual interest and activity, spontaneous erection” value in the data set on hypogonadal men is on record as “significant increases”. Moreover, the “body circumferences (of fifteen)” value in data set [3] is reported as “significant increases”.
